“And” between values parts separate entries of the source, which are not always exact repeats. Equal values may be shown once.
Key:
[1] = test system: SJL/J anti PLP 139-151 T-cells; experiment: Experimental autoimmune encephalomyelitis (EAE) induced by encephalitogenic T-cells treated ex vivo; format: in vivo, mouse
[2] = test system: mouse antigen-specific (MBP87-99) T-cells; experiment: Membrane potential measurement by flow cytometry, mouse antigen-specific T-cells; format: cell-based; conditions: DPAT 10^−8 M; di-BA-C4(3) oxanol dye
Method: (§1) Membrane potential measurements by flow cytometry: Purified normal human or mouse antigen-specific T-cells were incubated in serum-free medium (RPMI, ˜1×10^6/ml, 1 hr, 37° C., 10% CO2 humidified incubator) to assure steady state conditions. The cells were then washed, resuspended in normal RPMI, distributed into individual tubes (˜1×10^6/tube), added with 300 nM di-BA-C4(3) oxanol dye (Molecular Probes, Inc., Eugene, Oreg., USA), and 5-15 minutes later added with DPAT (10^−8 M). Alternatively, the human T-cells were resuspended either in normal RPMI, or in rich K^+ RPMI solutions, incubated for 30 min (37° C., 10% CO2), and loaded with 300 nM di-BA-C4(3) oxanol dye. The cell fluorescence was analyzed on the FACSORT at 488 nm.

normal human T-cells [3] = experiment: Proliferation of resting normal human T-cells (CyQuant); format: cell-based; conditions: 48 hours
Method: FIGS. 18A-C depict the proliferation of resting normal human and cultured Jurkat T-cells induced by physiological concentrations of DPAT. […] Numbers of T-cells were evaluated using the CyQuant cell proliferation assay kit (Molecular Probes), according to the manufacturer instructions. FIG. 18A represents a calibration of the CyQuant cell kit, showing the linear relationship between the fluorescent intensity and untreated human T-cell number. Note the similar maximal enhancement of T-cell proliferation with 10^−10M DPAT in purified normal human (18B) and cultured Jurkat T-cells (FIG. 18C).

normal human T-cells [4] = experiment: T-cell adhesion assay (adhesion of human T-cells to fibronectin)
Method: T-cell adhesion assay: In the majority of the experiments, adhesion of purified normal human T-cells to fibronectin was assayed with radioactively labeled T-cells as follows: normal human T-cells, purified from a fresh blood sample, were labeled with Na2[^51CrO4], washed, and resuspended in adhesion medium (RPMI-1640 supplemented with 2% BSA, 1 mM Ca^++, 1 mM Mg^++, 1% sodium pyruvate, 1% glucose, and 1% HEPES buffer). The cells were then pre-treated (30 min., 37° C.) with DPAT, and added to fibronectin coated (1 μg/well; Sigma Chemicals, St. Louis, Mo.) microtiter flat-bottomed 96 well plates (1×10^5 cells/100 μl/well). The plates were placed in a humidified incubator (37° C., 30 min., 10% CO2), and than washed thoroughly several times with PBS, to remove non-adherent T-cells. The adherent T-cells were lysed with 1% Tween 20 in 1N NaOH, and the radioactivity in the resulting supernatants was determined in a γ-counter. For each experimental group, results were expressed as the mean CPM±SD of bound T-cells from quadruplicate wells. DPAT-treated T-cell adhesion to BSA-(rather than fibronectin) coated wells, and untreated T-cell adhesion to fibronectin coated wells, were the standard negative controls.
Non-radioactive T-cell adhesion assays: Alternatively, T-cell adhesion assays were performed with non-radioactively labeled cells, differing from the above protocol only in the final detection steps which were performed as follows: After the final washing of the adhesion plates and removal of the non adherent cells, the microtiter wells were supplemented with lysis and substrate solution (60 μl/well of: 0.5% Triton X-100 in water mixed with an equal volume of 7.5 mM p-nitrophenol-N-acetyl-β-D-glucosaminide, (Sigma Chemicals, St. Louis, Mo.) in 0.1M citrate buffer pH=5.0). The plates were then incubated (˜18hr) in a CO2-free 37° C. incubator, supplemented with stop solution (90 μl/well of 50 mM glycine, (Sigma Chemicals, St. Louis, Mo.) pH=10.4 containing 5 mM EDTA), and the optical density was measured at 405 nm in a standard Elisa reader.

[5] = test system: Bomapin (protease inhibitor 10, PI 10); experiment: RT-PCR analysis of Bomapin mRNA in peripheral T-cells; format: cell-based, human; conditions: DPAT 10 nM; not shown
[6] = test system: oxazalone-sensitized T-cells; experiment: Passively transferred delayed type hypersensitivity (DTH) with T-cells treated ex vivo; format: in vivo, mouse
Method: Lymph nodes were removed from oxazalone-sensitized mice, and the T-cell suspension was exposed ex-vivo to increasing concentrations of DPAT (FIG. 9A, DPAT […]-DPAT 10^−6M) as described for FIG. 8 hereinabove. Control T-cells were incubated with medium only (untreated T-cells). The T-cells were then washed, resuspended in PBS and injected intravenously into naive syngeneic mice. The ears of the recipient mice were than challenged with oxazalone, and the degree of ear swelling was measured by micrometer 24 hr later. DTH is expressed as the mean ±SD of ear swelling in units of 10^−2 mm. […] Oxazalone-sensitized T-cells were incubated ex vivo for one hour with either DPAT (10^−8 M, +DPAT) or U-Mal (10^−7 M, +U-Mal), or both. The T-cells were then washed, resuspended in PBS, injected intravenously into normal recipients, and DTH measured as described hereinabove. […] FIGS. 9A and 9B represent two individual experiments, each experimental group consisting of 8 mice.
Passively transferred delayed type hypersenisitivity (DTH): Groups of 6-8 BALB/c female mice (The Jackson Laboratory, Bar Harbor, Mass., USA) were sensitized on the abdominal skin with 200 μt of 2% oxazalone dissolved in acetone/olive oil [4:1 vol/vol)] applied topically. Five days later, lymph nodes were removed from the sensitized mice, and a cell suspension prepared. The cells (3-5×10^6/ml in RPMI, no additional supplements) were than added for […] incubation ([…]. 37° C., 10% CO2 humidified incubator) with either DPAT, U-Mal, or both (in the latter combination the antagonist added 5 minutes before the agonist). The cells were than washed, resuspended in PBS, and injected IV (40×10^6 /mouse) into normal BALB/c recipients. Immediately afterwards the recipient mice were […] with 10 μl of 2% oxazalone in acetone/olive oil, applied topically to each side of the ear. A constant area of the ear was measured immediately before challenge and 24 hr after the challenge with a Mitutoyo engineer's micrometer. The individual measuring the ear swelling was unaware of the identity of the mice groups. The DTH reaction is expressed as the mean±SD (for each group) of the increment of ear swelling 24 hours after inoculation of the oxazalone-sensitized T-cells, in units of 10^−2 mm.

normal human T-cells [7] = experiment: Membrane potential measurement by flow cytometry, human T-cells; format: cell-based; conditions: DPAT 10^−8 M
Method: as §1

IL-10 secretion = IL-10 secretion by human peripheral T-cells (sandwich ELISA); format: cell-based; conditions: agonist 10^−7 M, 72 hours
Source text: The results are expressed as pg/ml IL-10. […] Immunostaining is with intracellular anti-IL-10 FITC conjugated (FL-1) and anti-CD4 PE conjugated (FL-2) antibodies, as described in Materials and Methods hereinbelow.
The results are expressed as pg/mi.
(§2) The results are expressed as pg/ml.
as §2, §2

[8] = test system: resting human peripheral T-cells; experiment: Gene expression, Atlas human cDNA expression array; format: cell-based; conditions: DPAT 10 nM, 24 hours
Method: Poly A+RNA was extracted from human T-lymphocytes before and after treatment with 10 nM DPAT for 24 hours, using the Atlas Pure Total RNA Labeling System (Clontech Laboratories, Inc. Palo Alto, Calif.) according to manufacturers recommendations. […] Hybridizations to the Atlas Human cDNA Expression Arrays membranes (Catalog No. 1.2 KIII (7850-1) and III (7855-1), Clontech Laboratories) were performed by Clonetech Laboratories, as described in the user manual, and the expression pattern of up and down regulated genes was visualized by autoradiography.
Poly A+ RNA was prepared from both DPAT- treated and untreated cells and reverse transcribed to ^32P-labeled cDNA. Using an Atlas human cDNA expression array (i.e. a positively charged nylon membrane spotted with 1200 different human cDNAs) for identification of effected genes, the reverse transcribed products were characterized by hybridization to the atlas membranes. The differential pattern of expression between untreated cells and DPAT-treated cells was visualized by autoradiography, and quantified by densitometry. (FIGS. 20A and 20B). […] This member of the ovalbumin family of serine protease inhibitors is expressed at elevated levels in patients with acute myeloid leukemia and chronic myelomonocytic leukemia, inhibits TNF alpha-induced cell death, and has been linked to the regulation of protease activities in early hematopoiesis (Riewald, M et al Blood 1998;91:1256-62 and Schleef R R and Chuang T L J Biol Chem 2000;275:26385-9).

CCCN(CCC)C1CCc2ccc(O)cc2C1 (stereo not drawn) [DPAT, 7-Hydroxy-DPAT]
severity of EAE in recipient mice ([1]; T-cells incubated 1 hour with DPAT 10^−8 M ex vivo, IV into naive SJL/J mice, documented 5-12 days later): significantly reduced the severity | percentage of mice developing EAE, individual experiments ([1]; mice injected with DPAT-treated T-cells, four independent experiments): 83% and 60% (2×) and 80% | percentage of mice developing EAE, mean of four experiments ([1]; mice injected with DPAT-treated T-cells, p<0.01 vs untreated T-cells): 70% | depolarization of mouse antigen specific T-cells [2]: clear depolarization | DPAT concentration of maximal enhancement of proliferation, normal human T-cells (normal human T-cells [3]): 10^−10 M | proliferation of normal human T-cells relative to untreated cells (normal human T-cells [3]; DPAT 10^−8 M to 10^−10 M): up to 5 times that of untreated cells | DPAT-treated T-cell adhesion to BSA-coated wells (normal human T-cells [4]; DPAT 10 nM, BSA- instead of fibronectin-coated wells (negative control)): < 6% | adhesion when T-cells or fibronectin-coated wells were transiently exposed to DPAT (normal human T-cells [4]; DPAT 10^−8 M, washed before seeding): significant adhesion of T-cells to fibronectin was evident only if the T-cells | optimum concentration for induction of T-cell adhesion to fibronectin (normal human T-cells [4]; dose dependence, human T-cells): 10 nM | abundance of Bomapin transcripts [5]: increased abundance of Bomapin transcripts | DTH (ear swelling) caused by oxazalone-sensitized T-cells ([6]; DPAT 10^−8 M ex vivo, 1 hr, ear swelling 24 hr after challenge): significantly reduced | DTH suppression at higher and lower concentrations ([6]; DPAT concentrations other than 10^−8 M): either less or not at all effective | reduction of DTH ([6]; DPAT ex vivo, ear swelling 24 hr after challenge): > 60% | level of depolarization, comparable extracellular K^+ concentration (normal human T-cells [7]): ~20 mM | depolarization of normal human T-cells (normal human T-cells [7]; di-BA-C4(3) oxanol dye): clear depolarization | shift of membrane potential (normal human T-cells [7]; from a resting potential of ˜48 mV): ~6 mV | induction of IL-10 secretion by receptor-specific Dopamine agonists (IL-10 secretion): induced by the D2 and D3 | down-regulation of gene expression [8]: down-regulated the expression of others | expression of Lupus LA protein and Cathepsin E precursor [8]: induced expression of Lupus LA protein and Cathepsin E precursor | expression of the serine protease inhibitor Bomapin [8]: induction of expression | over expression of mRNA (upregulated genes) [8]: induced the over expression of mRNA encoding for several genes
